Test results published in PMC10044245, “Comparative Evaluation of Existing and Rationally Designed Novel Antimicrobial Peptides for Treatment of Skin and Soft Tissue Infections” (Antibiotics, 2023).
Values after ≈ are worked out from the molar mass of the structure shown. Where a SMILES comes first, the peptide text is derived from it.

Legend:
[1] = test system: BALB/c 3T3 murine fibroblast cell line; test: Cytotoxicity, neutral red uptake assay; format: cell-based; conditions: Balb/c 3T3, neutral red uptake, 48 h, tested 3.9–500 μg/mL
Text: The BALB/c 3T3 murine fibroblast cell line was obtained from ATCC (American Type Culture Collection, Manassas, VA, USA). Primary human dermal fibroblasts were isolated by enzymatic digestion from skin biopsies in the Laboratory of Bioanalytical and Biodosimetry Methods, University of Latvia, in accordance with the approval of the Committee of Research Ethics of the Institute of Cardiology and Regenerative Medicine, University of Latvia. Cells were propagated in DMEM medium (Sigma, Irvine, UK), supplemented with 1% penicillin (100 U/mL)–streptomycin (100 μg/mL), and 10% calf serum (Sigma, St. Louis, MO, USA) for Balb/c 3T3 cell line and fetal bovine serum (Sigma, St. Louis, MO, USA) for primary dermal fibroblasts. All cultivations were performed in a humidified 5% CO2 atmosphere at 37 °C.
The cytotoxicity of the peptides was tested in the BALB/c3T3 cell line and primary dermal fibroblasts by the neutral red (NR) uptake assay. Cells were seeded in 96-well plates at a density of 5 × 10^3 cells per well. After 24 h of incubation, peptides in a concentration range of 3.9 to 500 μg/mL were added. Dilutions were made in a cell cultivation medium. Cultivation in the presence of extracts was performed for 48 h. Afterwards, plates were washed with phosphate-buffered saline (PBS) (Sigma, Irvine, UK), and a 25 µg/mL NR solution (Sigma, Irvine, UK) diluted in 5%-fetal-calf-serum-containing-media was added. After 3 h, incubation in a humidified 5% CO2 atmosphere at 37 °C, the plate was washed with PBS, and the NR taken up by viable cells was extracted using desorbing fixative (50% ethanol/1% acetic acid/49% water). Absorbance at 540 nm was measured using a microplate reader Tecan Infinite® 200 PRO (Tecan Group Ltd., Mannedorf, Switzerland). Cytotoxicity was expressed as a concentration-dependent reduction in the uptake of NR, compared to the untreated controls and calculated using the following equation: Cell viability (%)=Abs540nm(treatment)−Abs540nm(background)/Abs540nm(untreated control)−Abs540nm(background)×100%

[2] = test system: HaCaT keratinocytes; conditions: cited from earlier work
[3] = test system: IL-10 secretion in LPS stimulated PBMNCs; test: IL-10 secretion by PBMNCs, ELISA; format: cell-based, human; conditions: LPS and 20 μg/mL peptide, 24 h
Description: (§1) The effect of the peptides was evaluated in human peripheral blood mononuclear cells (PBMNCs). Blood from healthy donors was collected in Monovette vacutainers containing EDTA. Blood was collected in accordance with the approval of the Committee of Research Ethics of the Institute of Cardiology and Regenerative Medicine, University of Latvia. Blood was diluted (1:2 ratio by volume) with 0.9% sodium chloride solution supplemented with 10 U/mL heparin and mononuclear cell fraction isolated by gradient centrifugation. Diluted blood samples were layered on Ficoll-Paque solution in ratio 2:1 (GE Healthcare, Chicago, IL, USA), and density gradient centrifugation was performed at 800× g for 20 min at room temperature in a swing-out centrifuge. Mononuclear cells containing buffy coats were aspirated and washed twice with phosphate-buffered saline and centrifuged at 600× g for 20 min at room temperature. The cell pellet was suspended in DMEM medium (Sigma, D6046, Irvine, UK) supplemented with 1% penicillin (100 U/mL)–streptomycin (100 μg/mL) and 10% fetal bovine serum (Sigma, St. Louis, MO, USA), and cells were seeded on 24-well plates at a density of 5 × 10^5 cells per well and incubated at 37 °C, 5% CO2. […]
(§2) Concentrations of TNF-α and IL-10 secreted in cultivation media by PBMNCs were determined using enzyme-linked immunosorbent assay (ELISA). […]

[4] = test system: P. aeruginosa; test: microbe, parasite or virus in culture; format: cell-based, Pseudomonas aeruginosa; conditions: 96-well plate, serial dilutions, 32 °C, 13–18 h, 200 rpm, OD 550 nm
Description: Quantification of the antimicrobial resistance against various AMPs was carried out by measuring the bacterial growth in the presence of peptides at serial dilutes in 96 well plates in a microplate (96-well plate) reader Infinite® M200 PRO Multimode Microplate Reader (Tecan, Maennedorf, Switzerland) according to our recent reports. All bacterial strains were incubated at 32 °C for 13–18 h at 200 rpm. Optical density measurements (λ = 550 nm) were taken automatically at 10 min intervals. Antimicrobial resistance activity was quantified as the minimum inhibitory concentration (MIC)—the lowest concentration of a peptide which prevents growth of bacterial cells.

[5] = test system: human peripheral blood mononuclear cells (PBMNCs); test: Viability of PBMNCs, MTT reduction assay; format: cell-based; conditions: 24 h, 4 and 20 μg/mL with or without 5 µg/mL LPS, n = 3
Description: as §1, with “temperature.” for “temperature. The cell pellet was suspended in DMEM medium (Sigma, D6046, Irvine, UK) supplemented with 1% penicillin (100 U/mL)–streptomycin (100 μg/mL) and 10% fetal bovine serum (Sigma, St. Louis, MO, USA), and cells were seeded on 24-well plates at a density of 5 × 10^5 cells per well and incubated at 37 °C, 5% CO2.”
Viability of PBMNCs after incubation with peptides was evaluated using MTT reduction assay. […] Absorption was measured at 570 nm using Tecan Infinite® 200 PRO (Tecan Group Ltd., Mannedorf, Switzerland).
Blank wells without cells were used for the background measurement. Proliferation relative to control was calculated using the equation below. […]

[6] = test system: C. acnes; conditions: cited from earlier work
Description: Five AMPs were examined earlier for treatment of individual bacteria related to skin and soft tissue infections, while none of them were tested against all ESCAPE pathogens simultaneously. Peptide R1 is a direct derivate of earlier published RP551 [47], with the replacement of non-proteinogenic amino acid, ornithine (O) by lysine (K) at the positions 3,8,11, and 14.

[7] = test system: TNF-α secretion in LPS stimulated PBMNCs; test: TNF-α secretion by PBMNCs, ELISA; format: cell-based, human; conditions: 24 h
Description: as §1, §2

Row | SMILES | concentrations at which cytotoxic / reduced cell viability [1] | concentrations without cytotoxic effect [2] | increase of IL-10 secretion compared to LPS alone [3] [%] | MIC P. aeruginosa [4] [µg/mL] | reduction of PBMNC viability [5] [%] | antimicrobial activity against C. acnes [6] [µg/mL] | increase of TNF-α secretion [7]
1 | CC(C)[C@H](N)C(=O)N[C@@H](CCCCN)C(=O)N[C@@H](CCCNC(=N)N)C(=O)N[C@@H](Cc1c[nH]c2ccccc12)C(=O)N[C@@H](CCCCN)C(=O)N[C@@H](CCCCN)C(=O)N[C@@H](Cc1c[nH]c2ccccc12)C(=O)N[C@@H](Cc1c[nH]c2ccccc12)C(=O)N[C@@H](CCCNC(=N)N)C(=O)N[C@@H](CCCCN)C(=O)N[C@@H](Cc1c[nH]c2ccccc12)C(=O)N[C@@H](CCCCN)C(=O)N[C@@H](CCCCN)C(=O)N[C@@H](Cc1c[nH]c2ccccc12)C(=O)N[C@H](C(=O)O)C(C)C [LZ1, reference compound] (H-VKRWKKWWRKWKKWV-OH) | 62.5 µg/mL | up to 200 μg/mL | – | – | – | – | –
2 | CC[C@H](C)[C@H](NC(=O)CNC(=O)[C@H](CCCCN)NC(=O)[C@H](Cc1ccc(O)cc1)NC(=O)[C@H](CS)NC(=O)[C@@H](NC(=O)[C@H](CCCCN)NC(=O)[C@H](Cc1ccccc1)NC(=O)[C@H](CS)NC(=O)[C@H](Cc1c[nH]c2ccccc12)NC(=O)[C@@H](N)CCCNC(=N)N)C(C)C)C(=O)N[C@@H](CS)C(=O)N[C@@H](Cc1ccc(O)cc1)C(=O)N[C@@H](CCCCN)C(=O)N[C@@H](CCCCN)C(=O)N[C@@H](CS)C(=O)N[C@@H](CCCCN)C(=O)O [RP556] (H-RWCFKVCYKGICYKKCK-OH; N-terminus and C-terminus assumed) | only at the highest concentration | – | 35.56 | 2 (≈ 0.927 µM) | ≤ 17.5 | 2 to 4 | below 18.3%
